According to patent US10206907B2, “Compounds useful for the treatment of degenerative and inflammatory diseases” (GALAPAGOS NV, priority 2008, dated 2019):

Columns and labels:
[1] = biological target: Recombinant human JAK1 catalytic domain (Homo sapiens (Human), UniProt P23458); experiment: JAK1 inhibition assay; type: biochemical; conditions: semi-quantitative score
Procedure, shortened: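 IC50 values come from dose-response series, with each point expressed as percent inhibition of cpm. Vehicle sets full activity and 10 μM staurosporine sets background. Incorporated radioactivity counted by scintillation after washing with 75 mM phosphoric acid.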

[2] = biological target: Recombinant human JAK2 catalytic domain (Homo sapiens (Human), UniProt O60674); experiment: JAK2 inhibition assay; type: biochemical; conditions: semi-quantitative score
Procedure, shortened: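 Activity was taken as vehicle cpm minus cpm with 10 μM staurosporine, and inhibition was expressed on that scale. Incubation was 90 min at 30 °C, followed by acid quench, phosphoric acid washes and Microscint counting. Compounds were tested as dose series to obtain IC50.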

[3] = test system: JAK-STAT signalling in HeLa cells; experiment: JAK-STAT signalling assay (OSM-triggered pSTAT1(2)-luciferase reporter in HeLa cells); type: cell-based; conditions: Homo sapiens; HeLa cells, OSM-triggered pSTAT1(2)-luciferase reporter; read-out: STAT signalling EC50
Procedure, shortened: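 Read-out is oncostatin M–driven pSTAT1(2)-luciferase activity, corrected by co-transfected LacZ β-galactosidase, in transiently transfected HeLa cells cultured overnight at 37 °C, 10% CO2. Inhibition percentages against positive and negative controls were plotted across doses to derive EC50.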

MMP13 in SW1353 cells = experiment: OSM/IL-1β signaling assay (MMP13 levels in SW1353 cells); type: cell-based; conditions: Homo sapiens; SW1353 cells, OSM and IL-1β triggered, MMP13 levels 48 hours after triggering; read-out: MMP13 EC50;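 also: secreted MMP13 captured by antibody, activated with APMA and its activity read by fluorescence, inhibition scaled between vehicle-treated triggered wells (0%) and untriggered wells (100%)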
[4] = Microsomal stability, human liver microsomes; type: in vitro ADME; conditions: percentage of compound remaining after 60 minutes, 3 μM compound
Procedure: (§1) 40 μL of deionised water was added to a well of a polypropylene Matrix 2D barcode labelled storage tube (Thermo Scientific) and pre-incubated at 37° C.
(§2) A co-factor containing MgCl2, glucose-6-phosphate and NADP+ was prepared in deionised water and placed on ice before use.
(§3) A final working solution containing liver microsomes (Xenotech of a species of interest (human, mouse, rat, dog), previously described G6PDH and co-factors was prepared and this mix was incubated for no longer than 20 minutes at room temperature.
(§4) 30 μL of the pre-heated compound dilution was added to 40 μL of pre-heated water in the Matrix tubes and 30 μL of the microsomal mix was added.
(§5) To measure percentage remaining of compound at time zero MeOH or ACN was added (1:1) to the well before adding the microsomal mix.
(§6) The samples which were not stopped are incubated at 37° C., 300 rpm and after 1 hour of incubation the reaction was stopped with MeOH or ACN (1:1).
(§7) After stopping the reaction the samples were mixed and placed on ice for 30 min to precipitate the proteins.
(§8) The samples were analyzed on LCMS with a flow rate of 1 mL/min. Solvent A was 15 mM ammonia and solvent B was methanol or acetonitrile, depending on the stop solution used. […] The percentage remaining after 1 hour incubation was calculated from time 0 and was calculated as the percentage remaining.
(§9) The data on microsomal stability are expressed as a percentage of the total amount of compound remaining after 60 minutes.

[5] = Microsomal stability, rat liver microsomes; type: in vitro ADME; conditions: percentage of compound remaining after 60 minutes, 3 μM compound
Procedure: as §1, §2, §3, §4, §5, §6, §7, §8, §9

Recombinant human JAK2 catalytic domain, sequence (O60674 808-1132): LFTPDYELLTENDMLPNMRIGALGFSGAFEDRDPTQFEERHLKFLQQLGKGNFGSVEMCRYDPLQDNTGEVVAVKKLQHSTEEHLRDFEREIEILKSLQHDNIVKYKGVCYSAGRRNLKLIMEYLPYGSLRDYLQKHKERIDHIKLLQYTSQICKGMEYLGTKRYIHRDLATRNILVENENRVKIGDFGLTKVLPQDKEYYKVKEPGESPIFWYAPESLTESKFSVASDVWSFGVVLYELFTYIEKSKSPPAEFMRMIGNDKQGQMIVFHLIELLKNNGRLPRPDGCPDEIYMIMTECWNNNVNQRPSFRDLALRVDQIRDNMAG
Recombinant human JAK1 catalytic domain, sequence (P23458 850-1154): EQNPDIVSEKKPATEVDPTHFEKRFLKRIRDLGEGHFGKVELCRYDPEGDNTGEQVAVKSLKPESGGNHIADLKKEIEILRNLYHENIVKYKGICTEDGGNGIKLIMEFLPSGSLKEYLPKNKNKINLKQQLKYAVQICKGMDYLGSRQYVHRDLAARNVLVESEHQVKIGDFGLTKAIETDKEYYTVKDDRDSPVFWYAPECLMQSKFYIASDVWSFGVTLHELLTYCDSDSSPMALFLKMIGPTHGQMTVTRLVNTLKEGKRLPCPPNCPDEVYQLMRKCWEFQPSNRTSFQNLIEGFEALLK

IC50 [1] [nM] | IC50 [2] [nM] | EC50 [3] [nM] | EC50 (MMP13 in SW1353 cells) [nM] | Microsomal Stability Human (%) [4] | Microsomal Stability Rat (%) [5] | Compound
< 100 | < 100 | 101 to 500 | > 1000 | *** (*** 51-75) | *** (*** 51-75) | O=C(Nc1nc2cccc(-c3ccc(OCc4ccc(Cl)nc4)cc3)n2n1)C1CC1 [Compound 198, Cyclopropanecarboxylic acid {5-[4-(6-chloro-pyridin-3-ylmethoxy)-phenyl]-[1,2,4]triazolo[1,5-a]pyridin-2-yl}-amide]
< 100 | 101 to 500 | 101 to 500 | 501 to 1000 | * (* 0-25) | * (* 0-25) | Cc1noc(C)c1CCOc1ccc(-c2cccc3nc(NC(=O)C4CC4)nn23)cc1 [Compound 201, Cyclopropanecarboxylic acid (5-{4-[2-(3,5-dimethyl-isoxazol-4-yl)-ethoxy]-phenyl}-[1,2,4]triazolo[1,5-a]pyridin-2-yl)-amide]
< 100 | < 100 | > 1000 | > 1000 | * (* 0-25) | * (* 0-25) | CC(=O)N(Cc1cccnc1)c1ccc(-c2cccc3nc(NC(=O)C4CC4)nn23)cc1 [Compound 202, Cyclopropanecarboxylic acid {5-[4-(acetyl-pyridin-3-ylmethyl-amino)-phenyl]-[1,2,4]triazolo[1,5-a]pyridin-2-yl}-amide]
< 100 | < 100 | 501 to 1000 | 501 to 1000 | * (* 0-25) | * (* 0-25) | O=C(Nc1nc2cccc(-c3ccc(CCc4ccccn4)cc3)n2n1)C1CC1 [Compound 211, Cyclopropanecarboxylic Acid {5-[4-(2-pyridin-2-yl-ethyl)-phenyl]-[1,2,4]triazolo[1,5-a]pyridin-2-yl}-amide]
< 100 | < 100 | 101 to 500 | 1 to 500 | *** (*** 51-75) | ** (** 26-50) | O=C(Nc1nc2cccc(-c3ccc(CNc4ccc(Cl)cc4F)cc3)n2n1)C1CC1 [Compound 212, Cyclopropanecarboxylic acid (5-{4-[(4-chloro-2-fluoro-phenylamino)-methyl]-phenyl}-[1,2,4]triazolo[1,5-a]pyridin-2-yl)-amide]
< 100 | < 100 | 101 to 500 | > 1000 | * (* 0-25) | * (* 0-25) | N#CCc1ccc(NCc2ccc(-c3cccc4nc(NC(=O)C5CC5)nn34)cc2)cc1 [Compound 224]
< 100 | < 100 | 101 to 500 | 1 to 500 | * (* 0-25) | * (* 0-25) | N#CCc1ccccc1NCc1ccc(-c2cccc3nc(NC(=O)C4CC4)nn23)cc1 [Compound 225, Cyclopropanecarboxylic acid (5-{4-[(2-cyanomethyl-phenylamino)-methyl]-phenyl}-[1,2,4]triazolo[1,5-a]pyridin-2-yl)-amide]
< 100 | < 100 | 101 to 500 | 501 to 1000 | * (* 0-25) | * (* 0-25) | O=C(Nc1nc2cccc(-c3ccc(CNc4ccccc4F)cc3)n2n1)C1CC1 [Compound 226, Cyclopropanecarboxylic acid (5-{4-[(2-fluoro-phenylamino)-methyl]-phenyl}-[1,2,4]triazolo[1,5-a]pyridin-2-yl)-amide]
< 100 | < 100 | > 1000 | 501 to 1000 | *** (*** 51-75) | ** (** 26-50) | O=C(Nc1nc2cccc(-c3ccc(CN4CCC(F)CC4)cc3)n2n1)C1CC1 [Compound 233, Cyclopropanecarboxylic acid {5-[4-(4-fluoro-piperidin-1-ylmethyl)-phenyl]-[1,2,4]triazolo[1,5-a]pyridin-2-yl}-amid]
